Experimental data as given in ChEMBL document CHEMBL3286154, “Oxabicyclooctane-linked novel bacterial topoisomerase inhibitors as broad spectrum antibacterial agents” (ACS Med Chem Lett, 2014).
Activity calls are given as the source filed them. The rule behind the calls is not given here.

Experiments:
Liver = experiment: Metabolic stability in mouse liver microsomes after 30 to 60 mins; format: ADME
Liver microsome [1] = experiment: Metabolic stability in dog liver microsomes after 30 to 60 mins; format: ADME, Canis lupus familiaris
Staphylococcus aureus [2] = experiment: Antibacterial activity against Staphylococcus aureus infected in po dosed ICR mouse assessed as increase in mouse survival after 7 days; format: functional; settings: 168 h
Escherichia coli [3] = experiment: Antibacterial activity against Escherichia coli infected in iv dosed ICR mouse assessed as increase in mouse survival after 7 days; format: functional; settings: 168 h
Escherichia coli [4] = experiment: Antibacterial activity against Escherichia coli infected in po dosed ICR mouse assessed as increase in mouse survival after 7 days; format: functional; settings: 168 h
Mus musculus = experiment: Dose normalized AUC in C57BL/6 mouse at 1 mg/kg, iv and 2 mg/kg, po; format: ADME, organism-based; settings: in vivo
[5] = Plasma clearance in C57BL/6 mouse at 1 mg/kg, iv and 2 mg/kg, po; format: ADME, organism-based
[6] = Volume of distribution at steady state in C57BL/6 mouse at 1 mg/kg, iv and 2 mg/kg, po; format: ADME, organism-based; settings: in vivo, read-out: Vdss
[7] = Half life in C57BL/6 mouse at 1 mg/kg, iv and 2 mg/kg, po; format: ADME, organism-based; settings: in vivo
[8] = Oral bioavailability in C57BL/6 mouse at 2 mg/kg; format: ADME, organism-based; settings: in vivo
Canis familiaris = experiment: Dose normalized AUC in beagle dog at 1 mg/kg, iv and 2 mg/kg, po; format: ADME, organism-based, Canis lupus familiaris; settings: in vivo
[9] = Plasma clearance in beagle dog at 1 mg/kg, iv and 2 mg/kg, po; format: ADME, organism-based, Canis lupus familiaris
[10] = Volume of distribution at steady state in beagle dog at 1 mg/kg, iv and 2 mg/kg, po; format: ADME, organism-based, Canis lupus familiaris; settings: in vivo, read-out: Vdss
[11] = Half life in beagle dog at 1 mg/kg, iv and 2 mg/kg, po; format: ADME, organism-based, Canis lupus familiaris; settings: in vivo
[12] = Oral bioavailability in beagle dog at 2 mg/kg; format: ADME, organism-based, Canis lupus familiaris; settings: in vivo
Staphylococcus aureus [13] = experiment: Antibacterial activity against methicillin-sensitive Staphylococcus aureus; format: functional
Staphylococcus aureus [14] = experiment: Antibacterial activity against methicillin-resistant Staphylococcus aureus; format: functional
Streptococcus pneumoniae = experiment: Antibacterial activity against Streptococcus pneumoniae; format: functional
Enterococcus faecalis = experiment: Antibacterial activity against Enterococcus faecalis; format: functional
Enterococcus faecium = experiment: Antibacterial activity against vancomycin-resistant Enterococcus faecium; format: functional
Haemophilus influenzae = experiment: Antibacterial activity against Haemophilus influenzae; format: functional
Escherichia coli [15] = experiment: Antibacterial activity against Escherichia coli; format: functional
Acinetobacter baumannii = experiment: Antibacterial activity against Acinetobacter baumannii; format: functional
Moraxella catarrhalis = experiment: Antibacterial activity against Moraxella catarrhalis; format: functional
Pseudomonas aeruginosa = experiment: Antibacterial activity against Pseudomonas aeruginosa; format: functional
Staphylococcus aureus [16] = experiment: Antibacterial activity against quinolone-sensitive Staphylococcus aureus; format: functional
Staphylococcus aureus [17] = experiment: Antibacterial activity against quinolone-resistant Staphylococcus aureus; format: functional
DNA gyrase = DNA gyrase (Staphylococcus aureus, UniProt P0A0K8+P20831); experiment: Inhibition of Staphylococcus aureus DNA gyrase; format: protein-complex assay
[18] = Inhibition of Staphylococcus aureus DNA topoisomerase 4
[19] = Inhibition of Escherichia coli gyrase
[20] = Inhibition of Escherichia coli topoisomerase 4
[21] = Solubility of the compound in PBS at pH 2; format: physicochemical
Staphylococcus aureus [22] = experiment: Antibacterial activity against Staphylococcus aureus in presence of 50% human serum; format: functional, organism-based
Staphylococcus aureus [23] = experiment: Antibacterial activity against Staphylococcus aureus in presence of 500 ug/ml sheared DNA; format: functional, organism-based
Staphylococcus aureus [24] = experiment: Antibacterial activity against Staphylococcus aureus infected in iv dosed ICR mouse assessed as increase in mouse survival after 7 days; format: functional; settings: 168 h
Staphylococcus aureus [25] = experiment: Antibacterial activity against Staphylococcus aureus ATCC 29213 assessed as reduction of colony forming units using > 10^5 CFU/ml inoculum at 0.06 to 0.12 ug/ml by time kill experiment; format: functional
[26] = Solubility of the compound in PBS at pH 7; format: physicochemical
[27] = Unbound fraction in human plasma; format: ADME, cell-free
[28] = Unbound fraction in dog plasma; format: ADME, cell-free, Canis lupus familiaris
[29] = Unbound fraction in mouse plasma; format: ADME, cell-free
Liver microsome [30] = experiment: Metabolic stability in human liver microsomes after 30 to 60 mins; format: ADME

DNA gyrase, sequence (P0A0K8 whole entry): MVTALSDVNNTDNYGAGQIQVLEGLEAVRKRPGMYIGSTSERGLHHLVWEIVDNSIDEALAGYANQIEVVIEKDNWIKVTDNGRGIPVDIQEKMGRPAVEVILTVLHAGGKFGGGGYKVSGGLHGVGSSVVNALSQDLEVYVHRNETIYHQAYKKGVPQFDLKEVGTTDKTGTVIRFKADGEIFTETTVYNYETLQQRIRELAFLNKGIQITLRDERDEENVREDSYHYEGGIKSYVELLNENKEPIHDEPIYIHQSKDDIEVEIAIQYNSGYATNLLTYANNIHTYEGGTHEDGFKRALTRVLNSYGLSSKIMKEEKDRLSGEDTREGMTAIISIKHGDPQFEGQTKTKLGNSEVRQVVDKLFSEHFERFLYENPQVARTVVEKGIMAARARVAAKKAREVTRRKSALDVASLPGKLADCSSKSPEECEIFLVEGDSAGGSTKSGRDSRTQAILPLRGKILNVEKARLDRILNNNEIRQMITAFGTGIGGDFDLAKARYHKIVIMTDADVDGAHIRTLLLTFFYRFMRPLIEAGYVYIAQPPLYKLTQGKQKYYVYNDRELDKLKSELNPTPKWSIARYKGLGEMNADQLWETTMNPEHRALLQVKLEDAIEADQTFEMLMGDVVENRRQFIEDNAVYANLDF
DNA gyrase, sequence (P20831 whole entry): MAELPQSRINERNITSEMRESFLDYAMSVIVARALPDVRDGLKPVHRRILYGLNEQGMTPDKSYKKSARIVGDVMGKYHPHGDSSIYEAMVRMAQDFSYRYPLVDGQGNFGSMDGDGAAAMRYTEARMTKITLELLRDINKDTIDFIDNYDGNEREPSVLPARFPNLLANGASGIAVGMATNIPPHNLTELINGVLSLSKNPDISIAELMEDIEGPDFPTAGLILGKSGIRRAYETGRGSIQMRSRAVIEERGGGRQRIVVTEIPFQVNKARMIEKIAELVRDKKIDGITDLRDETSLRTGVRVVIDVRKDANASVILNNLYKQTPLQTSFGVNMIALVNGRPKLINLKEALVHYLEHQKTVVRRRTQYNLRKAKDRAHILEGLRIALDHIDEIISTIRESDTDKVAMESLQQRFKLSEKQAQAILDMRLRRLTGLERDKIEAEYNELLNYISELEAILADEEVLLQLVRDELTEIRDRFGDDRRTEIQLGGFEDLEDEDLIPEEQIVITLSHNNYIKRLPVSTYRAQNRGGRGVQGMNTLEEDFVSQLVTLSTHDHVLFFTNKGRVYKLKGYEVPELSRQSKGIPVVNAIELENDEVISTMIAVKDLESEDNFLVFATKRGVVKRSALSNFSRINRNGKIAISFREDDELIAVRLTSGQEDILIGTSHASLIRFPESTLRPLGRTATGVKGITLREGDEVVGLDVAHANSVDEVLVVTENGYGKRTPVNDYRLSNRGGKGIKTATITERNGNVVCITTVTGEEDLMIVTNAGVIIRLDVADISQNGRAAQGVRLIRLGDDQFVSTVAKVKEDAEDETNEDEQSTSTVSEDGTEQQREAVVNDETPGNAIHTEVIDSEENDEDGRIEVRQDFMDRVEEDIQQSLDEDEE

COc1ccc2ncc(F)c(C[C@H](O)C34CCC(NCc5ccc6c(n5)NC(=O)CO6)(CC3)CO4)c2n1.Cl
Stability (Liver): Stable | Stability (Liver microsome [1]): Stable | ED50 (Staphylococcus aureus [2]): 2.2 mg/kg | ED50 (Escherichia coli [3]): 23 mg/kg | ED50 (Escherichia coli [4]): 85 mg/kg | AUC/dose (Mus musculus): 0.76 µM·h/mpk | clearance [5]: 43.3 mL/min/kg | Vd [6]: 1.61 L/kg | half-life [7]: 1.7 h | bioavailability [8]: 30.1% | AUC/dose (Canis familiaris): 3.57 µM·h | clearance [9]: 9.16 mL/min/kg | Vd [10]: 2.6 L/kg | half-life [11]: 4.49 h | bioavailability [12]: 40.4% | MIC (Staphylococcus aureus [13]): 0.02 µg/mL | MIC (Staphylococcus aureus [14]): 0.06 µg/mL | MIC (Streptococcus pneumoniae): 0.05 µg/mL | MIC (Enterococcus faecalis): 0.5 µg/mL | MIC (Enterococcus faecium): 0.5 µg/mL | MIC (Haemophilus influenzae): 0.5 µg/mL | MIC (Escherichia coli [15]): 2 µg/mL | MIC (Acinetobacter baumannii): 0.5 µg/mL | MIC (Moraxella catarrhalis): 0.015 µg/mL | MIC (Pseudomonas aeruginosa): 8 µg/mL | MIC (Staphylococcus aureus [16]): 0.06 µg/mL | MIC (Staphylococcus aureus [17]): 0.25 µg/mL | IC50 (DNA gyrase): 1020 nM | IC50 [18]: 10400 nM | IC50 [19]: 780 nM | IC50 [20]: 500 nM | solubility [21]: 200 µM | Activity (Staphylococcus aureus [22]): Active | Activity (Staphylococcus aureus [23]): Active | ED50 (Staphylococcus aureus [24]): 2.5 mg/kg | log10cfu (Staphylococcus aureus [25]): >3 | solubility [26]: 154 µM | fraction unbound [27]: > 0.25 | fraction unbound [28]: > 0.25 | fraction unbound [29]: > 0.25 | Stability (Liver microsome [30]): Stable
